Assays:
G6PD [1] = target: T1, G6PD (Homo sapiens, UniProt P11413); test: Cellular thermal shift assay (CETSA) in HepG2 lysates; type: binding; parameters: endogenous in cells; settings: up to 56° C.
Protocol: Lysates from HepG2 cells at 75% confluence were isolated with 0.5% Triton in TBS (20 mM, Tris pH 7.4, 150 mM NaCl) for 30 min on ice, pre-cleared by centrifugation and used for thermal shift assay as described 49. Briefly, inhibitor or DMSO control was added to lysates at indicated concentration and incubated for 30 min on ice followed by 3 min heating at 47° C., 50° C., 53° C., and 56° C. in a thermal cycler. After heating, tubes were cooled at room temperature for 3 min and insoluble fraction removed by centrifugation at 17,000 g for 20 min. The soluble fraction was separated by SDS-PAGE, transferred to PVDF membrane, and immunoblotted using indicated antibodies at a dilution of 1:2000. Blots were developed by chemiluminescence and imaged using LI-COR C-DiGit Western Blot Scanner. Two independent experiments were performed. Signal intensity of proteins from immunoblots was quantified using Image Studio version 5.2 for C-DiGit Scanner, and bands were normalized to signal intensity of the 47° C. treated samples. Relative signal intensities were plotted as bar graph relative to the DMSO treated control.
Target sequence in this assay (P11413 whole entry): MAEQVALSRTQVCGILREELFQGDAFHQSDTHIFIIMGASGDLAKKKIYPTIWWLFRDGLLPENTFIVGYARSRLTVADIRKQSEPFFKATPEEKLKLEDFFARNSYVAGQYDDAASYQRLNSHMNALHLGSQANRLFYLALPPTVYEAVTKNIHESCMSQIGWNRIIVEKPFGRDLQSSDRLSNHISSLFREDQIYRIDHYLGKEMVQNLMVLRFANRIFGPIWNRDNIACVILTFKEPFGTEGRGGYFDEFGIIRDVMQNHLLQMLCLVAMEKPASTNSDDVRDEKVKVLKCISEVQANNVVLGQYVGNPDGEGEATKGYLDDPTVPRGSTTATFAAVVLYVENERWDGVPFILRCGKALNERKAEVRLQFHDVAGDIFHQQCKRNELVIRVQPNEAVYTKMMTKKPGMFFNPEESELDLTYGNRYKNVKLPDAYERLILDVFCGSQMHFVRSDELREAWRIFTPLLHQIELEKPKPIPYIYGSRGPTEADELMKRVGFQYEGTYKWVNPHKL

G6PD [2] = target: T1, G6PD; test: 6-pg levels in HepG2 cells (cellular target engagement); type: cell-based; parameters: endogenous in cells; settings: for dose-dependent decrease in 6-pg levels: dose-response
Excerpt: Direct Monitoring of 6-pg in cells. The metabolite 6-phosphogluconate (6-pg) is a downstream product of the G6PD reaction, and is believed to be made predominantly by the oxidative pentose phosphate pathway in mammalian cells. Though the direct product of G6PD is the lactone form of 6-pg (6-phosphogluconolactone), this product is believed to readily hydrolyze to 6-pg under cellular conditions, and is therefore difficult to detect. Thus, to directly monitor the G6PD reaction, methods for measuring 6-pg levels in intact cells were developed.
To explore this possibility further, more specific assays for evaluating G6PD cellular target engagement were developed. […] These included the hepatocellular carcinoma line, HepG2, which was selected as the primary cell for direct 6-pg monitoring. Consistent with the oxPPP being the primary source of 6-pg in these cells, G6PD knockout led to nearly complete 6-pg loss (FIGS. 1B and 1C).
(§1) For analysis of intracellular metabolites by LC-MS, adherent cell lines were plated and grown to 80% confluency in 6-well plates. At the start of an experiment, the appropriate media was added to cells, which included isotope tracers and/or chemical inhibitors as described. Cells were incubated at 37° C. at 5% CO2 for 2 hours (unless otherwise noted). For all experiments involving small molecule agents, DMSO concentrations were <0.2%. After 2 hours, media was removed by aspiration and metabolome extraction was performed (without any wash steps) by the addition of 800 µL of ice cold solvent (40:40:20 acetonitrile:methanol:water + 0.5% formic acid). After a 1-minute incubation on ice, the extract was neutralized by the addition of NH4HCO3 (15% w/v). The samples were incubated at -20° C. for approximately 30 minutes, at which point the wells were scraped and the extract transferred to Eppendorf tubes and centrifuged (15 minutes, 16000 rpm, 4° C.). The resulting supernatant was frozen on dry ice and kept at -80° C. until LC-MS analysis.
Metabolites were analyzed using a quadrupole-orbitrap mass spectrometer (Q Exactive Plus, Thermo Fisher Scientific, Waltham, MA), coupled to hydrophilic interaction chromatography (HILIC) with LC separation on a XBridge BEH Amide column (Waters), or a stand-alone orbitrap (Thermo-Fisher Exactive) coupled to reversed-phase ion-pairing chromatography with LC separation on a HSS-T3 column (Waters). Both mass spectrometers were operating in negative ion mode and were coupled to their respective liquid chromatography methods via electrospray-ionization. Detailed analytical conditions have been previously described.
Target sequence in this assay (P11413 whole entry): as above

G6PD [3] = target: T1, G6PD; test: 2H transfer from 1-2H-glucose to NADPH active hydride and C16:0 in HCT116 cells; type: cell-based; parameters: endogenous in cells; host or cells: HCT116; settings: for dose-dependent decrease in 2H transfer from 1-2H-glucose to NADPH's active hydride: HCT116 cells, dose-response
Excerpt: Direct Monitoring of NADPH Produced by the G6PD Reaction. […] NADPH production is compartmentalized, and occurs through reduction of its redox partner NADP^+. G6PD is one of the main enzymes that generates NADPH, and catalyzes the transfer of electrons (in the form of hydride) from glucose-6-phosphate to NADP^+. By installing a deuterium at the “one” position of glucose (1-^2H-glucose), the transfer of that deuterium to the active hydride of NADPH via glucose-6-phosphate can be specifically monitored. Also, a major use of cytosolic NADPH is fat synthesis. Transfer of ^2H from glucose via NADPH into free palmitate (C16:0) requires two NADPH per two-carbon unit addition during its synthesis.
Next, G6PD mediated hydride transfer to NADPH was directly monitored. Specifically, transfer of deuterium from 1-^2H-glucose, via glucose-6-phosphate, to the NADPH’s active hydride was monitored (FIG. 1B). […] The impacted step was G6PD, as no change in substrate (G6P) labeling was observed (FIG. 1E). A major use of cytosolic NADPH is fat synthesis. Transfer of ^2H from glucose via NADPH into palmitate (C16:0), which requires two NADPH per 2-carbon unit addition during its synthesis, was quantified (FIG. 1B).
For all experiments involving stable isotope tracers (e.g., 1-^2H-glucose), the isotope tracer nutrient was substituted for unlabeled nutrient at the same concentration normally found in the base media for a given cell type (e.g., DMEM for HCT116, RPMI for T cells, etc.). In addition, dialyzed FBS was used as a supplement in place of FBS.
Cytosolic NADPH sources were traced, and redox active hydride labeling was calculated, using a previously described strategy. 1-^2H-glucose (which directly traces G6PD) or 3-^2H-glucose (which directly traces PGD) were used for tracing oxPPP contribution to NADPH; 4-^2H-glucose for ME1; [2,3,3,4,4-^2H5]-glutamine, for both ME1 and IDH1; and D2O, to account for solvent exchange.
as §1
Target sequence in this assay (P11413 whole entry): as above

G6PD [4] = target: T1, G6PD; test: G6PD enzymatic activity by diaphorase-coupled assay
Target sequence in this assay (P11413 28-515): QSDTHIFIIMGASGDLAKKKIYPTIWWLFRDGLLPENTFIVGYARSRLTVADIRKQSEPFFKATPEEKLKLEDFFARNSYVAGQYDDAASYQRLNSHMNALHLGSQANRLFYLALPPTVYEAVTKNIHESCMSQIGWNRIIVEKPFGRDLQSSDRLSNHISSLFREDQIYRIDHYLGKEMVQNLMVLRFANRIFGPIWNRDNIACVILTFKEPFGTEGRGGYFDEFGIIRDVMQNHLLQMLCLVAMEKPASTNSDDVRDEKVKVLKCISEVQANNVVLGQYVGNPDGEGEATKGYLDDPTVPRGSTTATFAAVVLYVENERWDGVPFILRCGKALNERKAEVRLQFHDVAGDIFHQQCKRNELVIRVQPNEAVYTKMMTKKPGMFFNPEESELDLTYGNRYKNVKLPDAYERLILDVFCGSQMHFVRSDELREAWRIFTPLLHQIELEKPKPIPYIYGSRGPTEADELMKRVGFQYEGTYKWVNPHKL

G6PD [5] = target: T1, G6PD; test: G6PD enzymatic activity by LC-MS (6-pg production); type: biochemical; parameters: Partially truncated human G6PD (residues 28-515, Uniprot ID P11413); His6 with thrombin cleavage site (N, cleaved yes); made in house; host or cells: Escherichia coli BL21(DE3)pLysS; settings: orthogonal LC-MS assay
Protocol: Aliquots of reaction mixture were collected at indicated time points and rapidly quenched by diluting (1:5) into methanol precooled on dry ice. The mixtures were centrifuged at 13,000 rcf for 20 minutes at 4° C., and the resulting supernatants were diluted (1:20) into 40:40:20 methanol/ acetonitrile/ water and analyzed by LC-MS.
Target sequence in this assay (P11413 28-515): as above

| SMILES | thermal stabilization of G6PD (G6PD [1]) | 6-pg level (G6PD [2]; HepG2 cells, 100 µM, 2 hours) | dose-dependent decrease in 6-pg levels (G6PD [2]; HepG2 cells) | C16:0 labeling (G6PD [3]; 100 µM, 2 hours) | NADPH active hydride labeling (G6PD [3]; 100 µM, 2 hours) | dose-dependent decrease in 2H transfer from 1-2H-glucose to NADPH's active hydride (G6PD [3]) | IC50 (G6PD [4]; IC50 (half-maximal inhibitory constant) against human G6PD, coupled enzymatic assay, recombinant human enzyme) [µM] | activity against G6PD (G6PD [4]; in vitro) | 6-pg production by recombinant human G6PD (G6PD [5]) | 6-pg levels (G6PD [2]; 50 µM, 2 hours) | NADPH active hydride labeling (G6PD [3]; 50 µM, 2 hours) |
| --- | --- | --- | --- | --- | --- | --- | --- | --- | --- | --- | --- |
| C[C@]12CC[C@H](O)CC1=CC[C@@H]1[C@@H]2CC[C@]2(C)C(=O)CC[C@@H]12 [DHEA, dehydroepiandrosterone] | not | did not impact the 6-pg level | not | did not decrease | did not decrease | not | ~9.5 |  |  |  |  |
| CN(c1cccc(C#N)c1)c1ncc2c(n1)CCCC2=O [neg-ctrl, 3-[methyl(5-oxo-5,6,7,8-tetrahydroquinazolin-2-yl)amino]benzonitrile] |  |  | not |  |  | not |  | lacked any activity against G6PD | did not |  |  |
| OC[C@H]1O[C@@H](Oc2cc(O)cc(/C=C/c3ccc(O)cc3)c2)[C@H](O)[C@@H](O)[C@@H]1O [polydatin] |  |  |  |  |  |  |  |  |  | failed to decrease | failed to decrease |

From patent US20230348401A1, “Inhibitors of Glucose-6-phosphate Dehydrogenase and Uses Thereof” (The Trustees of Princeton University, priority 2020, published 2023)
